We go through three molecules from patent US6429212B1, “Medicinal composition” (Ishihara Sangyo Kaisha Ltd., priority 1996, dated 2002).

The term IC50 denotes the concentration needed to halve the response being measured. A high value points to lower potency.

The target in one assay is aminopeptidase N (Homo sapiens, UniProt P15144). The assay can be described thus: Inhibitory effect to aminopeptidase N (L-alanine-7-amido-4-methylcoumarin substrate, MOLT-4 cells, fluorescence). Type of assay: biochemical. As to conditions: based on fluorescence intensity of the control fraction (Table 13, Test Example 9). Here is the method:
As the substrate buffer solution, 100 mM Hepes buffer solution pH 7.6 (including 120 mM sodium chloride, 5 mM potassium chloride, 1.2 mM magnesium sulfate and 0.5% bovine serum albumin) was used. After the reaction was finished, fluorescence intensity was measured by using MTP-32 Colonna microplate reader (produced by Colonna Electric) under measurement condition at an excitation wavelength of 380 nm and at an emission wavelength of 440 nm. […] The values in the Table are based on fluorescence intensity of the control fraction, and represent the enzyme-inhibitory activity as IC50 (μg/ml).

Assay [1] has as its target T1, human platelet derived endothelial cell growth factor (thymidine phosphorylase) (Homo sapiens, UniProt P19971).
T1 construct: purchased Sigma
T1 sequence (P19971 11-482): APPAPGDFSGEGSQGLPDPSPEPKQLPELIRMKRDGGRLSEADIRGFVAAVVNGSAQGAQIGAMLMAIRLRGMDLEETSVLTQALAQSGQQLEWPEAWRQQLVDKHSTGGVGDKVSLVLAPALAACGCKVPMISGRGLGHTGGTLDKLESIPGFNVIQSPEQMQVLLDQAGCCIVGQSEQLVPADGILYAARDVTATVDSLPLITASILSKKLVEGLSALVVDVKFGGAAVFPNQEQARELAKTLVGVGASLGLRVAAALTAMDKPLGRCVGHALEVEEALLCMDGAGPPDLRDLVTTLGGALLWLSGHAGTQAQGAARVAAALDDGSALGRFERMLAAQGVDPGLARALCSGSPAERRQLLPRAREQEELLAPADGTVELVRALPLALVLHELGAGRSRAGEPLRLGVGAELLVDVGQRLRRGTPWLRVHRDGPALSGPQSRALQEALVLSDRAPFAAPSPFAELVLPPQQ
The assay can be described thus: Inhibitory activity to platelet derived endothelial cell growth factor (thymidine phosphorylase). The assay is classed as biochemical. To be noted: 37° C., 90 minutes, pH 5.6, absorbance at 300 nm; from 0.1, 1, 10 and 100 μg/ml. Here is the method: (1) 100 mmol/l of thymidine (produced by Wako Pure Chemical Industries, Ltd.), 500 mmol/l of K2HPO4 (produced by Nacalai Tesque) and 0.5 mol/l of 2-morpholinoethansulfonic acid.H2O (pH 5.6; produced by Dojindo Laboratories) were prepared.
(2) The compound of the general formula (I) was dissolved in dimethylsulfoxide solution having a concentration of at most 10%, to prepare a test sample having a concentration of the compound of the general formula (I) of 1.0 mg/ml.
(3) 5 μg/ml of human platelet derived endothelial cell growth factor (produced by Sigma) was prepared. […]
(6) Absorbance of the solution for measurement was measured by using a spectrophotometer (SPECTRA max 250: produced by Molecular Devices) at a wavelength of 300 nm.
(7) Sterile water was added to 100 μl of buffer solution having 0.5 mol/l of 2-morpholinoethansulfonic acid.H2O (pH 5.6) and 20 μl of the test sample having a concentration of the compound of the general formula (I) of 1.0 mg/ml, so that the total amount was 200 μl, to prepare a solution of the compound of the general formula (I) having a final concentration of 100 μg/ml. Absorbance of a liquid having 50 μl of 2N-NaOH added to 50 μl of the solution, as a sample for measuring background, was measured at a wavelength of 300 nm. […]

aminopeptidase N, sequence (P15144 2-967): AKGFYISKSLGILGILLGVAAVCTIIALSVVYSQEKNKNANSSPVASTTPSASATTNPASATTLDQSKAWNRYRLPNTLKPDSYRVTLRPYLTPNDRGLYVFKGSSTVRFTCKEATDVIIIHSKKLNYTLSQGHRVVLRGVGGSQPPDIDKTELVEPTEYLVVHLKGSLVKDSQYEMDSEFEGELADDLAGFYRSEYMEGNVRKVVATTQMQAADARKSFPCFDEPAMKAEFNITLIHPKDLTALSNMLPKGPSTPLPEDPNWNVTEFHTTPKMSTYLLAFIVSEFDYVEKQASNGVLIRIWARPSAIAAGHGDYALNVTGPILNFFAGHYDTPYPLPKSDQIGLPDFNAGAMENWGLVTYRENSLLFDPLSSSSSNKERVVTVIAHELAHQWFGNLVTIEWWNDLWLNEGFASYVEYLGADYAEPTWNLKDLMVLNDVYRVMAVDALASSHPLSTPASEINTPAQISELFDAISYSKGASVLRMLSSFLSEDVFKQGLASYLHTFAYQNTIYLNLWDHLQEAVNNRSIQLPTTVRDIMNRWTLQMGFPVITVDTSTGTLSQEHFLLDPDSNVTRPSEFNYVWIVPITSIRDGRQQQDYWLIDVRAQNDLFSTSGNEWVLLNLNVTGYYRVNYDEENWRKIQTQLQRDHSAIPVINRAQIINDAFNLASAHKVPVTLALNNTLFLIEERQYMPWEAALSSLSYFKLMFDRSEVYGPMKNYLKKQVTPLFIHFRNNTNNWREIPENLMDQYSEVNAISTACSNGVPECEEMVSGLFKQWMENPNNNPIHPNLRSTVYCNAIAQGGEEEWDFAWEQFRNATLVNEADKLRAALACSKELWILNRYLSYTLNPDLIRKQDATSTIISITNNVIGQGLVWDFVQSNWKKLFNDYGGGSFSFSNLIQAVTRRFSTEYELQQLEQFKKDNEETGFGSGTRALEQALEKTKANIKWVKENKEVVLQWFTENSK

As to `CSc1ccccc1N1C(=O)c2cccc(O)c2C1=O` [Compound 194], the “Aminopeptidase N inhibiting activity IC50” value at aminopeptidase N was 38 µg/mL.

For the molecule `O=C1Cc2ccccc2C(=O)N1c1ccccc1` [Compound A-1, N-phenyl-homophthalimide], inhibition in assay [1] was half-maximal at 160 µM (IC50).

`Cc1cccc(C)c1N1C(=O)Cc2ccccc2C1=O` [Compound A-2, N-(2,6-dimethylphenyl)-homophthalimide]: it took 230 µM to reach half-maximal inhibition in assay [1] (IC50).
